{"source": "ChEMBL document CHEMBL4339205", "about": "“Design, synthesis, and biological evaluation of novel pyrrolo[1,2-a]pyrazine derivatives” (Bioorg Med Chem Lett, 2019)", "key": {"Homo sapiens": {"species": "Homo sapiens", "experiment": "Inhibition of ERK phosphorylation in human U937 cells at 0.3 uM measured after 1 to 3 hrs y Western blot analysis", "format": "cell-based"}, "[1]": {"molecular_target": "T1, Protein farnesyltransferase (Homo sapiens) (UniProt P49354+P49356)", "experiment": "Inhibition of FTase (unknown origin)", "format": "protein-complex assay"}, "[2]": {"molecular_target": "c-Jun N-terminal kinase, JNK (Homo sapiens) (UniProt P45983+P53779+P45984)", "experiment": "Inhibition of JNK phosphorylation in human U937 cells at 0.3 uM measured after 1 to 3 hrs y Western blot analysis", "format": "cell-based"}, "U-937 [3]": {"test_system": "U-937", "experiment": "Cytotoxicity against human U937 cells assessed as reduction in cell viability measured after 3 days by CCK8 assay", "format": "functional, cell-based", "conditions": "U-937, 72 h"}, "U-937 [4]": {"test_system": "U-937", "experiment": "Induction of apoptosis in human U937 cells assessed as live cells at 0.3 uM measured after 1 day by muse Annexin V/dead cell reagent staining-based flow cytometry (reference value: 95.05 %)", "format": "functional"}, "CCD-18Co": {"test_system": "CCD-18Co", "experiment": "Cytotoxicity against human CCD-18Co cells assessed as reduction in cell viability measured after 3 days by CCK8 assay", "format": "cell-based", "conditions": "72 h"}, "U-937 [5]": {"test_system": "U-937", "experiment": "Induction of apoptosis in human U937 cells assessed as increase in caspase-3/7 activity up to 1 uM after 24 hrs", "format": "functional, cell-based"}, "U-937 [6]": {"test_system": "U-937", "experiment": "Induction of apoptosis in human U937 cells assessed as necrotic cells at 0.3 uM measured after 2 days by muse Annexin V/dead cell reagent staining-based flow cytometry (reference value: 2.5 %)", "format": "functional"}, "U-937 [7]": {"test_system": "U-937", "experiment": "Induction of apoptosis in human U937 cells assessed as necrotic cells at 0.3 uM measured after 3 days by muse Annexin V/dead cell reagent staining-based flow cytometry (reference value: 2.5 %)", "format": "functional"}, "U-937 [8]": {"test_system": "U-937", "experiment": "Induction of apoptosis in human U937 cells assessed as early apoptotic cells at 0.3 uM measured after 2 days by muse Annexin V/dead cell reagent staining-based flow cytometry (reference value: 0.7 %)", "format": "functional"}, "U-937 [9]": {"test_system": "U-937", "experiment": "Induction of apoptosis in human U937 cells assessed as early apoptotic cells at 0.3 uM measured after 3 days by muse Annexin V/dead cell reagent staining-based flow cytometry (reference value: 0.7 %)", "format": "functional"}, "[10]": {"molecular_target": "T1, Protein farnesyltransferase (Homo sapiens)", "experiment": "Inhibition of FTase in human U937 cells assessed as reduction in p38 MAPK phosphorylation at 0.3 uM measured after 1 to 3 hrs y Western blot analysis", "format": "cell-based"}, "U-937 [11]": {"test_system": "U-937", "experiment": "Induction of apoptosis in human U937 cells assessed as late apoptotic cells at 0.3 uM measured after 3 days by muse Annexin V/dead cell reagent staining-based flow cytometry (reference value: 1.75 %)", "format": "functional"}, "U-937 [12]": {"test_system": "U-937", "experiment": "Induction of apoptosis in human U937 cells assessed as necrotic cells at 0.3 uM measured after 1 day by muse Annexin V/dead cell reagent staining-based flow cytometry (reference value: 2.5 %)", "format": "functional"}, "U-937 [13]": {"test_system": "U-937", "experiment": "Induction of apoptosis in human U937 cells assessed as live cells at 0.3 uM measured after 3 days by muse Annexin V/dead cell reagent staining-based flow cytometry (reference value: 95.05 %)", "format": "functional"}, "U-937 [14]": {"test_system": "U-937", "experiment": "Induction of apoptosis in human U937 cells assessed as late apoptotic cells at 0.3 uM measured after 2 days by muse Annexin V/dead cell reagent staining-based flow cytometry (reference value: 1.75 %)", "format": "functional"}, "U-937 [15]": {"test_system": "U-937", "experiment": "Induction of apoptosis in human U937 cells assessed as early apoptotic cells at 0.3 uM measured after 1 day by muse Annexin V/dead cell reagent staining-based flow cytometry (reference value: 0.7 %)", "format": "functional"}, "U-937 [16]": {"test_system": "U-937", "experiment": "Induction of apoptosis in human U937 cells assessed as late apoptotic cells at 0.3 uM measured after 1 day by muse Annexin V/dead cell reagent staining-based flow cytometry (reference value: 1.75 %)", "format": "functional"}, "U-937 [17]": {"test_system": "U-937", "experiment": "Induction of apoptosis in human U937 cells assessed as live cells at 0.3 uM measured after 2 days by muse Annexin V/dead cell reagent staining-based flow cytometry (reference value: 95.05 %)", "format": "functional"}, "U-937 [18]": {"test_system": "U-937", "experiment": "Cytotoxicity against human U937 cells assessed as reduction in cell viability at 10 uM measured after 3 days by CCK8 assay", "format": "functional, cell-based"}}, "note": "pIC50: −log10 of the molar value. Activity calls are given as the source filed them. The calls are words filed in the database; no cut-off is given here."}
{"smiles": "COc1ccc(/C=C/C(=O)c2ccn3cc(-c4ccccc4)ncc23)c(OC)c1", "values": [{"measurement": "inhibition", "setting": "Homo sapiens", "value": "inactive"}, {"measurement": "inhibition", "setting": "[1]", "value": "Active"}, {"measurement": "inhibition", "setting": "[2]", "value": "inactive"}, {"measurement": "pIC50", "setting": "U-937 [3]", "value": 6.74}, {"measurement": "Activity", "setting": "U-937 [4]", "value": 84.45, "unit": "%"}, {"measurement": "pIC50", "setting": "CCD-18Co", "value": 5.13}, {"measurement": "Activity", "setting": "U-937 [5]", "value": "Active"}, {"measurement": "Activity", "setting": "U-937 [6]", "value": 5.1, "unit": "%"}, {"measurement": "Activity", "setting": "U-937 [7]", "value": 5.2, "unit": "%"}, {"measurement": "Activity", "setting": "U-937 [8]", "value": 2.15, "unit": "%"}, {"measurement": "Activity", "setting": "U-937 [9]", "value": 5.95, "unit": "%"}, {"measurement": "inhibition", "setting": "[10]", "value": "Active"}, {"measurement": "Activity", "setting": "U-937 [11]", "value": 5.7, "unit": "%"}, {"measurement": "Activity", "setting": "U-937 [12]", "value": 8.4, "unit": "%"}, {"measurement": "Activity", "setting": "U-937 [13]", "value": 83.15, "unit": "%"}, {"measurement": "Activity", "setting": "U-937 [14]", "value": 4.2, "unit": "%"}, {"measurement": "Activity", "setting": "U-937 [15]", "value": 2.3, "unit": "%"}, {"measurement": "Activity", "setting": "U-937 [16]", "value": 4.85, "unit": "%"}, {"measurement": "Activity", "setting": "U-937 [17]", "value": 88.55, "unit": "%"}]}
{"smiles": "COc1ccccc1/C=C/C(=O)c1ccn2cc(-c3ccccc3)ncc12", "values": [{"measurement": "Activity", "setting": "U-937 [18]", "value": "Active"}, {"measurement": "pIC50", "setting": "U-937 [3]", "value": 6.11}]}
{"smiles": "O=C(/C=C/c1ccccc1I)c1ccn2cc(-c3ccccc3)ncc12", "values": [{"measurement": "Activity", "setting": "U-937 [18]", "value": "inactive"}]}
{"smiles": "COc1ccc(OC)c(/C=C/C(=O)c2ccn3cc(-c4ccccc4)ncc23)c1", "values": [{"measurement": "Activity", "setting": "U-937 [18]", "value": "inactive"}]}
{"smiles": "O=C(/C=C/c1ccccc1F)c1ccn2cc(-c3ccccc3)ncc12", "values": [{"measurement": "Activity", "setting": "U-937 [18]", "value": "inactive"}]}
{"smiles": "O=C(/C=C/c1ccccn1)c1ccn2cc(-c3ccccc3)ncc12", "values": [{"measurement": "Activity", "setting": "U-937 [18]", "value": "Active"}, {"measurement": "pIC50", "setting": "U-937 [3]", "value": 6.06}]}
{"smiles": "COc1ccc(/C=C/C(=O)c2ccn3cc(-c4ccccc4)ncc23)cc1", "values": [{"measurement": "Activity", "setting": "U-937 [18]", "value": "Active"}]}
{"smiles": "O=C(/C=C/c1ccccc1Cl)c1ccn2cc(-c3ccccc3)ncc12", "values": [{"measurement": "Activity", "setting": "U-937 [18]", "value": "inactive"}]}
{"smiles": "O=C(/C=C/c1ccccc1Br)c1ccn2cc(-c3ccccc3)ncc12", "values": [{"measurement": "Activity", "setting": "U-937 [18]", "value": "inactive"}]}
{"smiles": "Nc1ccn([C@@H]2O[C@H](CO)[C@@H](O)[C@@H]2O)c(=O)n1", "note": "[CYTARABINE]", "values": [{"measurement": "Activity", "setting": "U-937 [18]", "value": "Active"}, {"measurement": "pIC50", "setting": "U-937 [3]", "value": 8.70}, {"measurement": "Activity", "setting": "U-937 [4]", "value": 79.05, "unit": "%"}, {"measurement": "Activity", "setting": "U-937 [6]", "value": 8.8, "unit": "%"}, {"measurement": "Activity", "setting": "U-937 [7]", "value": 11.05, "unit": "%"}, {"measurement": "Activity", "setting": "U-937 [8]", "value": 2.65, "unit": "%"}, {"measurement": "Activity", "setting": "U-937 [9]", "value": 8.7, "unit": "%"}, {"measurement": "Activity", "setting": "U-937 [11]", "value": 10.55, "unit": "%"}, {"measurement": "Activity", "setting": "U-937 [12]", "value": 11.2, "unit": "%"}, {"measurement": "Activity", "setting": "U-937 [13]", "value": 69.7, "unit": "%"}, {"measurement": "Activity", "setting": "U-937 [14]", "value": 5.35, "unit": "%"}, {"measurement": "Activity", "setting": "U-937 [15]", "value": 4.2, "unit": "%"}, {"measurement": "Activity", "setting": "U-937 [16]", "value": 5.55, "unit": "%"}, {"measurement": "Activity", "setting": "U-937 [17]", "value": 83.2, "unit": "%"}]}
{"smiles": "O=C(/C=C/c1ccncc1)c1ccn2cc(-c3ccccc3)ncc12", "values": [{"measurement": "Activity", "setting": "U-937 [18]", "value": "Active"}, {"measurement": "pIC50", "setting": "U-937 [3]", "value": 6.16}]}
{"smiles": "O=C(/C=C/c1cccnc1)c1ccn2cc(-c3ccccc3)ncc12", "values": [{"measurement": "Activity", "setting": "U-937 [18]", "value": "Active"}, {"measurement": "pIC50", "setting": "U-937 [3]", "value": 6.20}]}
{"smiles": "COc1cccc(/C=C/C(=O)c2ccn3cc(-c4ccccc4)ncc23)c1", "values": [{"measurement": "Activity", "setting": "U-937 [18]", "value": "Active"}]}
